Data as given in patent US10724055B2, “Methods for sustaining the viability of microorganisms during a cessation of syngas flow and processes for storage and reactivation of microorganisms” (Synata Bio, Inc., priority 2015, dated 2020).

Experiments:
Assay in all cases: Sustaining microorganisms with formate moiety during cessation of syngas feed, recovery on syngas resumption
Format in all cases: cell-based
[1] = tested on: Clostridium autoethanogenum
Protocol: (§1) A stirred, 10 liter, continuous fermenter is used under anaerobic bioconversion conditions with a feed gas comprising about 63.3 volume percent hydrogen; 20.5 volume percent carbon monoxide; 6.8 volume percent carbon dioxide; 8.2 volume percent methane and 1.2 volume percent nitrogen. During steady state operation, the gas feed is supplied at about 280 to 290 […] (measured at atmospheric pressure and 25° C.) and a media feed is provided at about 200 milliliters per hour. The media feed is an aqueous solution containing:
(§2) An aqueous solution of about 60 millimoles of sodium metabisulfite is separately added at a rate of 0.6 milliliters per hour. The fermenter is maintained at about 37° C. at a pH of about 5.0. The stirring rate is approximately 600 revolutions per minute.
In each example, the fermentation, using the microorganism specified in Table 1, is operated to achieve stable, steady-state conditions. The flow of syngas is then stopped. […] After a predetermined period, the addition of formate moiety is stopped, the nitrogen sweep gas is stopped and the syngas is resumed at a rate that matches the uptake capacity of the microbial population. The stirring is increased to about 600 rpm, and the flow rates of the media feed and metabisulfite feed are resumed to the levels existing prior to the cessation of the syngas feed.

[2] = tested on: Clostridium coskatii; conditions: no media or sulfur feed
Protocol: as §1, §2
(§3) In each example, the fermentation, using the microorganism specified in Table 1, is operated to achieve stable, steady-state conditions. The flow of syngas is then stopped. At the time of stoppage of syngas feed, the fermenter is operated in batch mode (no aqueous stream draw from the fermenter), nitrogen gas at about 15 milliliters per minute (atmospheric pressure and 25° C.) is fed to sweep the head space of the fermenter, and the stirring rate is reduced to about 100 rpm. After a predetermined period, the addition of formate moiety is stopped, the nitrogen sweep gas is stopped and the syngas is resumed at a rate that matches the uptake capacity of the microbial population. The stirring is increased to about 600 rpm, and the flow rates of the media feed and metabisulfite feed are resumed to the levels existing prior to the cessation of the syngas feed.

[3] = tested on: Clostridium autoethanogenum; conditions: Example 2; formate feed 3.5 mole % of electrons; outage 6 hrs; media feed 10%; Na2S 20 mg/hr; argon sweep gas
[4] = tested on: Clostridium radsdalei; conditions: Example 3; formate feed 5 mole % of electrons; outage 12 hrs; no media or sulfur feed
Protocol: as §1, §2, §3

[5] = Example 9, formate feed 10 mole % of electrons, outage 6 hrs, no media or sulfur feed
[6] = Example 10, formate feed 10 mole % of electrons, outage 24 hrs, no media or sulfur feed
[7] = Example 4, formate feed 3.5 mole % of electrons, outage 6 hrs
[8] = Example 5, formate feed 3.5 mole % of electrons, outage 24 hrs
[9] = Example 6, formate feed 15 mole % of electrons, outage 24 hrs
[10] = Example 1, formate feed 3.5 mole % of electrons prior to outage, syngas outage 6 hrs, media feed 10%, Na2S 20 mg/hr, nitrogen sweep
[11] = Example 8, formate feed 3.5 mole % of electrons, outage 6 hrs, no media or sulfur feed

O=CO [Formic acid]
Yes: CO uptake recovery [1, 5] | H2 uptake recovery [1, 5] | CO uptake recovery [1, 6] | H2 uptake recovery [1, 6]

N.O=CO [NH4^+ salt]
Yes: CO uptake recovery [2, 7] | H2 uptake recovery [2, 7] | CO uptake recovery [2, 8] | H2 uptake recovery [2, 8] | CO uptake recovery [2, 9] | H2 uptake recovery [2, 9]

O=C[O-].[Na+] [Sodium salt]
Yes: CO uptake recovery [3] | CO uptake recovery [4] | H2 uptake recovery [4] | CO uptake recovery [1, 10] | H2 uptake recovery [1, 10] | H2 uptake recovery ([1]; Example 2, formate feed 3.5 mole % of electrons, outage 6 hrs, media feed 10%, Na2S 20 mg/hr, argon sweep gas) | CO uptake recovery [1, 11] | H2 uptake recovery [1, 11]
